Measurements reported in patent US8829167B2, “Foliamangiferosides, preparation method and use thereof” (Tianjin University of Traditional Chinese Medicine, priority 2009, dated 2014).

Biological target: T1, α-glucosidase derived from rat intestines (Rattus norvegicus, UniProt P23739)
T1 construct: The brush border membrane is scraped; from tissue; host or cells: Wistar male rat jejunum, brush border membrane (crude preparation)
Assay: α-glucosidase inhibiting activity (sucrose hydrolysis by rat intestinal brush border crude enzyme, glucose assay kit)
Type: biochemical
Conditions: for inhibition of the conversion of sucrose into glucose under the catalysis of α-glucosidase in intestines (in words): in vitro; for Inhibition ratio: sucrose substrate, 37° C., 30 min
Method: The research process of α-glucosidase inhibiting activity: A Wistar male rat (body weight: about 200 g) is sacrificed by decapitation. The jejunum is taken out. The brush border membrane is scraped and then mixed into 0.1 M maleic acid buffer solution (pH 6.0). The mixture is used as α-glucosidase crude enzyme. 50 uL of sample solution dissolved in 2.5% DMSO is added into 100 uL of […] sucrosebase solution, into which 50 uL of the α-glucosidase solution derived from rat intestines is added. The mixture is reacted for 30 minutes at 37° C. before adding 800 uL of water and placing into boiling water bath for 2 minutes to be inactivated. The amount of the glucose produced is assayed with glucose assay kits.
Preparation of Sample Solution Group
0.1 M of maleic acid aqueous solution is mixed with 0.1 M of sodium maleate aqueous solution. The mixture is adjusted to pH 6.0 and is used as 0.1 M of maleic acid buffer solution. A sample is dissolved into DMSO solution and diluted 10 times with 0.1 M of maleic acid buffer solution. A sample solution is obtained and ready to use.
Sample group: The group in which a sample is added according to the experimental procedure described above (the samples are foliamangiferoside A (obtained in example 1) and foliamangiferoside B (obtained in example 2)); Control group: The group in which 2.5% DMSO solution is added according to the experimental procedure described above; Blank group: The type and amount of the agents are the same with those in sample group except that 800 uL of water is added immediately after 50 uL of the α-glucosidase solution derived from rat intestines is added, then the mixture is placed into a boiling water bath for 2 minutes to conduct inactivation. Furthermore, the similar experiments are conducted with ethanolic extracts of mango leaves (the product obtained in step 1 of example 1).
The following equation is used to calculate the inhibition ratio (%): inhibition ratio (%)=(A−B)/(A−C)*100
wherein, A is the absorbance of control group, B is the absorbance of sample group and C is the absorbance of blank group.

T1 sequence (P23739 whole entry): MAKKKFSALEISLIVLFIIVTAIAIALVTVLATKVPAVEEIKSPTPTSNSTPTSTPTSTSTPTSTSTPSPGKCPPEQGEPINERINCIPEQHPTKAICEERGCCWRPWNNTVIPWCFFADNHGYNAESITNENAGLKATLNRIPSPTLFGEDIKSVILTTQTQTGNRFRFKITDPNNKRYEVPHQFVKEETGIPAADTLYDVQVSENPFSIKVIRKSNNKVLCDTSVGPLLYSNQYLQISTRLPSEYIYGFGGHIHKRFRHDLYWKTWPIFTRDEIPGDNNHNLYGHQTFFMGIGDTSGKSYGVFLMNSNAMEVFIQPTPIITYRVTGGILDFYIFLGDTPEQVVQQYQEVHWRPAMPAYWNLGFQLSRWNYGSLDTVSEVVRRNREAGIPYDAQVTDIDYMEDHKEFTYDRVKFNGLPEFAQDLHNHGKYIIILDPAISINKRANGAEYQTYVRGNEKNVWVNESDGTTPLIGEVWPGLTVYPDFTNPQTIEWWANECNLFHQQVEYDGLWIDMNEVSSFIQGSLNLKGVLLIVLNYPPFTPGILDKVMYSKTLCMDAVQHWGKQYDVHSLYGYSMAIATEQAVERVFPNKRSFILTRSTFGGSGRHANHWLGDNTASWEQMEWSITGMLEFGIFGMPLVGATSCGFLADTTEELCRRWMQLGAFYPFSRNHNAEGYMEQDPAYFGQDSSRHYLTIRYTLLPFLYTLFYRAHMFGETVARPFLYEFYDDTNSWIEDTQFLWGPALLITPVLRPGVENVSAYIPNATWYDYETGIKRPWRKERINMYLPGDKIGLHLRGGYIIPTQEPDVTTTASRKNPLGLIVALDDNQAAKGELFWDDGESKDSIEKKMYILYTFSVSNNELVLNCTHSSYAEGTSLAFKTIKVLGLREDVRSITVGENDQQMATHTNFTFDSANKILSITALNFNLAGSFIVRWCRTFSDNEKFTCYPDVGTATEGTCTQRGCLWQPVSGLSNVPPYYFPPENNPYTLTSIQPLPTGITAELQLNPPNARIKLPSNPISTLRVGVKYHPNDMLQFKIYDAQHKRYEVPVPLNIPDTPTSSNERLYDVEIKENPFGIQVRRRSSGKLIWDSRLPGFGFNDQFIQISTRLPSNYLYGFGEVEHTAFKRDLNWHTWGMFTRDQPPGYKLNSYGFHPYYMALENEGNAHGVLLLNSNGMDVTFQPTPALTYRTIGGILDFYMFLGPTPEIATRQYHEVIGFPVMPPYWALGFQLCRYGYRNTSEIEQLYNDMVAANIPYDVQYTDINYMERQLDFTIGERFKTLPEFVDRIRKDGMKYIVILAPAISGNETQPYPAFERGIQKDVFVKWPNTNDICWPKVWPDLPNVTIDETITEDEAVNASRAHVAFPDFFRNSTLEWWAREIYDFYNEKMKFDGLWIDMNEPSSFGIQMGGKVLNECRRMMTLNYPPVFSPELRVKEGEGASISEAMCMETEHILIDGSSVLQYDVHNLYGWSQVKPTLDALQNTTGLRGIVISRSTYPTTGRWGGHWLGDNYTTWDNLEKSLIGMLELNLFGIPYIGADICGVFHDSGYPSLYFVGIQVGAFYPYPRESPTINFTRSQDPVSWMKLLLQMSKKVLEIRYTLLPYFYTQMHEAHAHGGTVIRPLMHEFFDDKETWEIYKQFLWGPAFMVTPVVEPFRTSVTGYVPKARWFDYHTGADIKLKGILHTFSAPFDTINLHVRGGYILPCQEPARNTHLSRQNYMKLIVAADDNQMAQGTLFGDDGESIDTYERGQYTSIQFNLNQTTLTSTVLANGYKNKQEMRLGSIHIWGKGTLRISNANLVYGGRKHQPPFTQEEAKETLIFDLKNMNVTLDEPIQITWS

SMILES | inhibition of the conversion of sucrose into glucose under the catalysis of α-glucosidase in intestines (in words) | Sample group Conc. of glucose hydrolyzed (sample 50 uM) [mg/dL] | Inhibition ratio (sample 50 uM) [%] | Sample group Conc. of glucose hydrolyzed (sample 100 uM) [mg/dL] | Inhibition ratio (sample 100 uM) [%] | Sample group Conc. of glucose hydrolyzed (sample 200 uM) [mg/dL] | Inhibition ratio (sample 200 uM) [%] | Sample group Conc. of glucose hydrolyzed (sample 400 uM) [mg/dL] | Inhibition ratio (sample 400 uM) [%] | Inhibition ratio (sample 400 uM, listed as foliamangiferoside A) [%] | Inhibition ratio (sample 400 uM, listed as foliamangiferoside B) [%]
COc1cc(O)c(C(=O)c2ccc(O)cc2)c(O)c1[C@@H]1O[C@H](CO)[C@@H](O)[C@H](O)[C@H]1O [Foliamangiferoside A, foliamangiferoside A] | can effectively inhibit | 5.23 | 15.8 | 4.64 | 20.2 | 4.12 | 26.2 | 3.09 | 58.2 | 58.2 | –
COc1cc(C(=O)c2c(O)cc(OC)c([C@@H]3OC(CO)[C@@H](O)C(O)C3O)c2O)ccc1O (some centres unmarked) [Foliamangiferoside B, foliamangiferoside B] | can effectively inhibit | 5.23 | 19.6 | 4.64 | 23.9 | 4.12 | 29.6 | 3.71 | 45.6 | – | 45.6
